Data set [1] deals with T1, human GPR84 (FLAG-hGPR84-eYFP) (Homo sapiens, UniProt Q9NQS5).
T1 construct: expressed in transfected cells
The experiment in a line: [35S]GTPγS binding, membranes of cells expressing FLAG-hGPR84-eYFP. The class given is biochemical. The protocol:
Membranes were generated from Flp-In T-REx HEK293 cells treated with 100 ng/mL doxycycline to induce expression of the receptor construct of interest. Cells were washed with ice-cold phosphate-buffered saline, removed from dishes by scraping and centrifuged at 3000 rpm for 5 min at 4 °C. Pellets were resuspended in TE buffer (10 mM Tris-HCl, 0.1 mM EDTA; pH 7.5) containing a protease inhibitor mixture (Roche Applied Science, West Sussex, UK) and homogenized with a 5 ml hand-held homogenizer. This material was centrifuged at 1500 rpm for 5 min at 4 °C and the supernatant was further centrifuged at 50000 rpm for 45 min at 4 °C. The resulting pellet was resuspended in TE buffer and protein content was assessed using a BCA protein assay kit (Pierce, Fisher Scientific, Loughborough, UK).
The reaction was then initiated with addition of [^35S]GTPγS (50 nCi per tube), and the reaction was terminated after 45 minutes incubation at 30 °C by rapid filtration through GF/C glass filters using a 24-well Brandel cell harvester (Alpha Biotech, Glasgow, UK). […] Dried filters were added to 3 mL of Ultima Gold^TM XR (PerkinElmer Life Sciences, Beaconsfield, UK) and [^35S]GTPγS binding was determined by liquid scintillation spectrometry.
All data are presented as means ± SEM of at least three independent experiments. Data analysis and curve fitting was carried out using the GraphPad Prism software package version 5.0b (GraphPad, San Diego). […] In case of inhibition experiments with antagonists an equivalent analysis was followed to fit an inverse sigmoidal curve. To perform the statistical analysis of curve parameters, data from multiple experiments were fitted independently and resulting curve fit values were analysed with indicated tests. For radioligand binding data, saturation binding curves were generated by fitting the specific binding, which was obtained by subtracting non-specific from total binding, to a one site specific binding model that allows calculation of Kd values for the radioligand at wild type and mutant receptors. To determine affinity of unlabelled ligands, data obtained in displacement assays were fit to an inverse three parameter sigmoidal curve constrained by radioligand affinity and concentration to allow for Ki calculation.
In general terms: GTPγS resists hydrolysis and so accumulates on activated G proteins.

Data set [2] deals with GPR84-Cys^352Ile Gαi2 fusion protein (Homo sapiens, UniProt Q9NQS5). Nature of the data set: [3H]G9543 radioligand binding (saturation and displacement), GPR84-Cys352Ile Gαi2 fusion protein. Set-up: Cys352Ile Gαi2 (fusion partner, same polypeptide); expressed in transfected cells; host or cells: membranes of Flp-In T-REx 293 cells, doxycycline-induced. The note with it: displacement assay. The protocol:
[^3H]G9543 is an analog of compounds 104, 107 and 161 with the same characteristic 2-(substituted-alkoxy)-9-substituted-6,7-dihydro-pyrimido[6,1-a]isoquinolin-4-one chemotype. […] Binding was initiated by the addition of membranes (5 µg of protein per tube). All assays were performed at 25 °C for 1 h before termination by the addition of ice-cold phosphate-buffered saline and vacuum filtration through GF/C glass filters using a 24-well Brandel cell harvester (Alpha Biotech, Glasgow, UK). Each reaction tube was washed three times with ice-cold PBS. The filters were allowed to dry for 2–3 h and then placed in 3 ml of Ultima Gold^TM XR. Radioactivity was quantified by liquid scintillation spectrometry. Specific binding was defined as the difference between binding detected in the presence and absence of 1 µM compound 104.
All data are presented as means ± SEM of at least three independent experiments. Data analysis and curve fitting was carried out using the GraphPad Prism software package version 5.0b (GraphPad, San Diego). For functional assays the concentration-response data were plotted on a log axis, with the untreated vehicle control plotted at 1 log unit lower than the lowest ligand concentration, and fitted to a three parameter sigmoidal curve with the Hill slope constrained to equal 1. In case of inhibition experiments with antagonists an equivalent analysis was followed to fit an inverse sigmoidal curve. To perform the statistical analysis of curve parameters, data from multiple experiments were fitted independently and resulting curve fit values were analysed with indicated tests. For radioligand binding data, saturation binding curves were generated by fitting the specific binding, which was obtained by subtracting non-specific from total binding, to a one site specific binding model that allows calculation of Kd values for the radioligand at wild type and mutant receptors. To determine affinity of unlabelled ligands, data obtained in displacement assays were fit to an inverse three parameter sigmoidal curve constrained by radioligand affinity and concentration to allow for Ki calculation.

The subject of data set [3] is patients with ulcerative colitis. More on the design: method as in doi:10.1093/ecco-jcc/jjx002.734. The conditions noted are these: cited from earlier work.
For a further data set, the system named is wild type GPR84. More on the design: method as in PMID 25425658. The note with it: cited from earlier work.

GPR84-Cys^352Ile Gαi2 fusion protein, sequence (Q9NQS5 2-396): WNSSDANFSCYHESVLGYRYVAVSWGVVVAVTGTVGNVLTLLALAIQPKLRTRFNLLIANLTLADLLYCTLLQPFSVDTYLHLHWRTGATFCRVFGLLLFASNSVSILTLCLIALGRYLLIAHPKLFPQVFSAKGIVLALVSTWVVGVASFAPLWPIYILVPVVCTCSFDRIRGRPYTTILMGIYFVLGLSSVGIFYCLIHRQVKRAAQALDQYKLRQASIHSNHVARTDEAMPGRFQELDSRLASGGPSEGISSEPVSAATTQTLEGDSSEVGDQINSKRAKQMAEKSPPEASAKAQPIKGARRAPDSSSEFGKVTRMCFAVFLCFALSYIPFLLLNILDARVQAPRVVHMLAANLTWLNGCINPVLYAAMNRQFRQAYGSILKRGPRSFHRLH
T1 sequence (Q9NQS5 whole entry): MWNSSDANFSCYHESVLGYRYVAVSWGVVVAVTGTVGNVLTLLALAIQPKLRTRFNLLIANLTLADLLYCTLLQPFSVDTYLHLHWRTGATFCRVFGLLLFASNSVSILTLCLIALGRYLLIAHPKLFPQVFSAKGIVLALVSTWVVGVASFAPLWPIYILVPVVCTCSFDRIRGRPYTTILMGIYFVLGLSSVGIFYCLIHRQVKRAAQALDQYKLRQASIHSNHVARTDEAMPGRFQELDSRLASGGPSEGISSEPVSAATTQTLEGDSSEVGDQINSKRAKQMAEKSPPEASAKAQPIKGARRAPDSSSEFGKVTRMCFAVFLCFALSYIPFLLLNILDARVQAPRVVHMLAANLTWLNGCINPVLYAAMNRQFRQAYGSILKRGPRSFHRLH

In the case of `O=c1nc(OC[C@H]2COCCO2)cc2n1CCc1cc(OCc3noc(C4CC4)n3)ccc1-2` [Compound 104, 9-(5-cyclopropyl-[1,2,4]oxadiazol-3-ylmethoxy)-2-((R)-1-[1,4]dioxan-2-ylmethoxy)-6,7-dihydro-pyrimido[6,1-a]isoquinolin-4-one], the “ability to limit [35S]GTPγS binding induced by EC80 concentrations of C10 (50 μM), embelin (3 μM) and DIM (5 μM)” value in data set [1] is “more potent than 161”. In addition, the “ability to compete with [3H]G9543 binding” value in data set [2] was “competed fully and effectively”. For the same molecule, the Ki in data set [2] (read-out: pKi, competition with [3H]G9543 (converted)) is 1.86 nM.
For `O=c1nc(OC[C@@H]2COCCO2)cc2n1CCc1cc(C#CC3CC3)ccc1-2` [GLPG1205], in data set [3] (12 weeks of chronic dosing), the “efficacy in patients with ulcerative colitis” value was “did not show efficacy”. Also, the safety and tolerability result in data set [3] (patients with ulcerative colitis) is “safe and tolerable”.
For `CCCCCCCCCCN` [decylamine], the “response of wild type GPR84” value in the data set on wild type GPR84 is “failed to respond”.

The values above are taken from paper PMC5738391, “Three classes of ligands each bind to distinct sites on the orphan G protein-coupled receptor GPR84” (Scientific Reports, 2017).
